Measured values from article PMC12736473, “Development and Validation of LC-MS/MS Method for Nintedanib and BIBF 1202 Monitoring in Plasma of Patients with Progressive Pulmonary Fibrosis Associated with Systemic Sclerosis” (Pharmaceutics, 2025).
Read-outs that look alike come from different tables or passages of the source.

What was measured:
[1] = NIN and BIBF 1202 plasma concentrations (C0, Cmax) in patients treated with NIN, UPLC-MS/MS; type: in vivo, human; conditions: for Cmax: human, read-out: Mean Concentration Cmax; for Cmax / Mean Concentration C0: patient plasma; for Concentration in the patient sample (chromatogram): single patient sample after administration of 100 mg dose
Procedure: Whole blood was collected via standard venipuncture from 24 patients diagnosed with CTD-PPF. Patients received treatment with NIN, of whom 8 were administered a dose of 100 mg twice daily and 16 received 150 mg twice daily. Blood samples were obtained prior to the first daily NIN dose (trough concentration, C0) and 2–3 h afterward (maximum concentration, Cmax). Following collection, samples of whole blood with NIN and metabolite were centrifuged, and then plasma was stored at −70 °C. This study was approved by the Local Bioethics Committee of the National Institute of Geriatrics, Rheumatology, and Rehabilitation in Warsaw (KBT-5/3/2024).
To prepare the samples, 200 μL of plasma was spiked with 20 μL of IS (NIN-d3) and vortexed. Protein precipitation was carried out using 500 μL of chilled ACN solution after we previously neutralized the samples with 50 μL of 2 M sodium carbonate (Na2CO3). The samples were subsequently mixed on an orbital shaker (Vibrax, IKA, Staufen, Germany) for 30 s at 1800 and centrifuged for 10 min at 13,000 rpm, 3 °C. Then, 200 μL of the supernatant was transferred into autosampler vials for LC-MS/MS analysis under the conditions described in Section 2.6 and Section 2.7.
The UPLC Acquity I-class Plus system (Milford, MA, USA, Waters), equipped with a quaternary gradient pump, column oven, degasser unit, and autosampler, was used. The autosampler and column were maintained at 10 ± 2 °C and 40 ± 2 °C, respectively. The isocratic elution was carried out using a mobile phase consisting of 0.1% formic acid in water and acetonitrile (35:65, v/v). The mobile phase flowed through a Zorbax SB-C18 column (100 mm × 3.0 mm, 3.5 µm; Santa Clara, CA, USA, Agilent Technologies) at a flow rate of 0.3 mL/min. The system was equipped with an ASSY FRIT pre-column (0.2 µm, 2.1 mm; Milford, MA, USA, Waters). To prevent the carry-over effect, after the analysis, the injection needle was washed with a mixture consisting of acetonitrile, methanol, isopropyl alcohol, water, and formic acid (250:250:250:250:1, v/v/v/v/v).
Mass spectrometric analysis was performed using a XEVO-TQ-XS quadrupole mass spectrometer (Milford, MA, USA, Waters). Multiple Reaction Monitoring (MRM) chromatograms were acquired and processed with MassLynx 4.2 software (Milford, MA, USA, Waters). Ionization was carried out in positive ion mode using electrospray ionization (ESI+). MS parameters of instruments and analyzed compounds are detailed in Table 1.
The LC-MS/MS method developed and fully validated in this study was used to analyze the concentrations (C0 and Cmax) of nintedanib and its metabolite BIBF 1202 in human plasma. Twenty-four patients were treated with two doses of NIN (8 patients: 100 or 16 patients: 150 mg twice daily). In total, 48 samples were collected from patients at two time points: a morning dose at the trough level, and a dose 2–3 h (Cmax) after the morning dose administration. The concentrations of NIN and its metabolite were determined in the plasma of 24 patients (Male/Female 8:16, mean age 56.2, age range 35–75) with progressive pulmonary fibrosis associated with systemic sclerosis. The obtained results are presented in Table 7 and illustrated graphically (Figure 4).

[2] = parameters: method as in PK study presented in the literature; conditions: ref PK study presented in the literature; cited from earlier work
[3] = Short-term stability in human plasma at ambient temperature (≤30 °C); type: in vitro ADME; conditions: for Short-term stability, Stability [%]: human plasma, ≤30 °C, vs reference samples
Procedure: (§1) The stability of NIN and BIBF 1202 in human plasma, including in the short term, autosampler, and freeze–thaw, was evaluated for the QC samples analyzed at two concentrations, 5.00 ng/mL (LQC1) and 170.00 ng/mL (HQC), studied in six replicates per test. The short-term stability of NIN and BIBF 1202 was assessed for the samples that were stored at ambient temperature (≤30 °C) for at least two hours, which were analyzed and compared with freshly prepared samples. Autosampler stability was determined by storing samples in the autosampler at 10 ± 2 °C for at least […]. Freeze–thaw stability was examined over three cycles, in which samples were frozen at ≤−14 °C for 12 h and subsequently thawed at ambient temperature (≤30 °C).
(§2) Autosampler stability was examined by storing samples at 10 ± 2 °C for up to 48 h. No impact of three freeze–thaw cycles (freezing at ≤−14 °C and thawing at ambient temperature) was observed on the stability of NIN or BIBF 1202.

[4] = Autosampler stability at 10 ± 2 °C; type: physicochemical, human; conditions: after 45 h
Procedure: as §1, §2

[5] = parameters: method as in PMID 26072676; conditions: cited from earlier work
[6] = Freeze–thaw stability in human plasma, three cycles; type: in vitro ADME; conditions: for Freeze–thaw stability, Stability [%]: human plasma, 3 cycles (≤−14 °C / ambient); for Impact of freeze–thaw cycles on stability: three cycles, freezing at ≤−14 °C, thawing at ambient temperature
Procedure: as §1, §2

[7] = NIN 100 mg twice daily, n = 8, 2–3 h after morning dose
[8] = NIN 150 mg twice daily, n = 16, 2–3 h after morning dose
[9] = NIN 100 mg twice daily, n = 8, trough (before first daily dose)
[10] = NIN 150 mg twice daily, n = 16, trough (before first daily dose)
[11] = 2 h at ambient temperature (≤30 °C)

Row | Compound | Cmax [1, 7] [ng/mL] | Cmax [1, 8] [ng/mL] | Mean Concentration C0 [1, 9] [ng/mL] | Mean Concentration C0 [1, 10] [ng/mL] | Concentration in the patient sample (chromatogram) [1] [ng/mL] | Time of peak plasma concentrations after administration [2] [h] | Short-term stability, Stability [%] ([3]; 4 h, HQC (170.00 ng/mL)) | Short-term stability, Stability [%] ([3]; 4 h, LQC1 (5.00 ng/mL)) | Effect of storing plasma samples on concentration [3, 11] | Effect of storing plasma samples on concentration ([3]; 4 h at ≤30 °C) | Autosampler stability, Stability [%] ([4]; HQC (170.00 ng/mL)) | Autosampler stability, Stability [%] ([4]; LQC1 (5.00 ng/mL)) | Rate of diarrhea ([5]; patients who continued NIN) [%] | Rate of diarrhea ([5]; patients who initiated NIN) [%] | Freeze–thaw stability, Stability [%] ([6]; HQC (170.00 ng/mL)) | Freeze–thaw stability, Stability [%] ([6]; LQC1 (5.00 ng/mL)) | Impact of freeze–thaw cycles on stability [6] | Short-term stability, Stability [%] ([3]; 2 h, HQC (170.00 ng/mL)) | Short-term stability, Stability [%] ([3]; 2 h, LQC1 (5.00 ng/mL))
1 | COC(=O)c1ccc2c(c1)NC(=O)/C2=C(\Nc1ccc(N(C)C(=O)CN2CCN(C)CC2)cc1)c1ccccc1 [NIN, Nintedanib] | 16.5 | 28.7 | 7.33 | 18.60 | 12.3 | 2 to 3 | 101.3 | 100.7 | did not cause changes | no effect | 100.6 | 96.4 | 60.1 | 71 | 99.7 | 94.6 | No impact | – | –
2 | CN1CCN(CC(=O)N(C)c2ccc(N/C(=C3\C(=O)Nc4cc(C(=O)O)ccc43)c3ccccc3)cc2)CC1 [BIBF 1202] | 26.6 | 57.8 | 9.81 | 35.20 | 28.0 | – | – | – | did not cause changes | reduction in the BIBF signal | 98.9 | 98.5 | – | – | 105.9 | 94.7 | No impact | 102.3 | 100.8
